# Results published in patent publication US20230028658A1, “EXPANDED DOSAGE REGIMENS FOR INTEGRIN INHIBITORS” (Pliant Therapeutics, Inc., priority 2021, published 2023).
# Biological target: recombinant human integrin αvβ6 (Homo sapiens, UniProt P06756+P18564)
# Test: Solid phase integrin αvβ6 binding assay
# Conditions: read-out: αvβ6 Inhibition IC50 (nM) - range
# Method: Microplates were coated with recombinant human integrin αvβ6 (2 μg/mL) in PBS (100 μL/well 25° C., overnight). The coating solution was removed, washed with wash buffer (0.05% Tween 20; 0.5 mM MnCl2; in 1×TBS). The plate was blocked with 200 μL/well of Block Buffer (1% BSA; 5% sucrose; 0.5 mM MnCl2; in 1×TBS) at 37° C. for 2 h. Dilutions of testing compounds and recombinant TGFβ1 LAP (0.67 μg/mL) in binding buffer (0.05% BSA; 2.5% sucrose; 0.5 mM MnCl2; in 1×TBS) were added. The plate was incubated for 2 hours at 25° C., washed, and incubated for 1 hour with Biotin-Anti-hLAP. Bound antibody was detected by peroxidase-conjugated streptavidin. The IC50 values for testing compounds were calculated by a four-parameter logistic regression.
# The compounds tested were compound samples prepared according to procedures described in the Synthetic Examples section, with the stereochemical purity as indicated in the Examples.
# Sequence of recombinant human integrin αvβ6 (P06756 31-992 limits assumed): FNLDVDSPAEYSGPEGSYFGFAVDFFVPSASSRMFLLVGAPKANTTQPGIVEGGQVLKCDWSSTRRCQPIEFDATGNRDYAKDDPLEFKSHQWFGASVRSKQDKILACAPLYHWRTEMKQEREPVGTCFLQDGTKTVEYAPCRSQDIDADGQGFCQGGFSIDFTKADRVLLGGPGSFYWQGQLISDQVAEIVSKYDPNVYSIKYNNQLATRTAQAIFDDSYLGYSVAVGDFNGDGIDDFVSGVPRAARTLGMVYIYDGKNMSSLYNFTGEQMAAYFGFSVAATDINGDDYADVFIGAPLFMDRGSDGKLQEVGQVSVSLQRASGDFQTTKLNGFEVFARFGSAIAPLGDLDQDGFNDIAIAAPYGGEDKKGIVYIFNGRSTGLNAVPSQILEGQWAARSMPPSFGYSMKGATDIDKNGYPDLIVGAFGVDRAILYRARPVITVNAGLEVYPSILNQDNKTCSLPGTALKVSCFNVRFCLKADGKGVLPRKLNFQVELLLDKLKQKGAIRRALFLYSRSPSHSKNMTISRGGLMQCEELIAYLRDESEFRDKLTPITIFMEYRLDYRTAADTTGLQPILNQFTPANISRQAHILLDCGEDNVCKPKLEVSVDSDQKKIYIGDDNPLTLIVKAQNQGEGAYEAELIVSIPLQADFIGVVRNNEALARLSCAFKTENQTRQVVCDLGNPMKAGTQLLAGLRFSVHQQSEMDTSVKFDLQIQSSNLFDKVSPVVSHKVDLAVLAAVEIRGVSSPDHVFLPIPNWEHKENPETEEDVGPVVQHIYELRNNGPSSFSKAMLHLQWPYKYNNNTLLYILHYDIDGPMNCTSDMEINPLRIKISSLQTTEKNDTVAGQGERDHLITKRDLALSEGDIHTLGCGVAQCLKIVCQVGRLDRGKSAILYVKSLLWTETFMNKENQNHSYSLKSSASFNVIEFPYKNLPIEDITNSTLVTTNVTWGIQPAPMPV
# Sequence of recombinant human integrin αvβ6 (P18564 22-707 limits assumed): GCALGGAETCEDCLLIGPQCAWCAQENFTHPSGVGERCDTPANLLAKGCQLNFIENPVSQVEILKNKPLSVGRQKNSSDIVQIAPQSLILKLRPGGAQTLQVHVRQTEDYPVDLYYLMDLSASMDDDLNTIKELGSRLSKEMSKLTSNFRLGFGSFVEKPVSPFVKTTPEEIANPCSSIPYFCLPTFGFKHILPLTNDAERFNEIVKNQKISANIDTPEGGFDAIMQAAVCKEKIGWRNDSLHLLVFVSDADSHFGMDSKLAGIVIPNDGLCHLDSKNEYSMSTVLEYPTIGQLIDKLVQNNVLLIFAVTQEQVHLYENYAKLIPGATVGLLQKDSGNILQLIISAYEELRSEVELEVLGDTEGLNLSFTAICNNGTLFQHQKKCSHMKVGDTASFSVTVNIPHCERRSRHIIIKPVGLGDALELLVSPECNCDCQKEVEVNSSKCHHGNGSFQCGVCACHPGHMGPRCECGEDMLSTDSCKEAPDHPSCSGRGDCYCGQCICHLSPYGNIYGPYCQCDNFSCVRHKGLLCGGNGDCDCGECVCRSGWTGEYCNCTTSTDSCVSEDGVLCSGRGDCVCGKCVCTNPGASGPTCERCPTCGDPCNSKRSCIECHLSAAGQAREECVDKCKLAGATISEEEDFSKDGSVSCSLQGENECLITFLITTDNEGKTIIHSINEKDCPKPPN
row,SMILES,IC50
1,"CO[C@H](C)CN(CCCCc1ccc2c(n1)NCCC2)CC[C@H](Nc1ncc(C#N)cn1)C(=O)O [Compound 68, (S)-2-((5-cyanopyrimidin-2-yl)amino)-4-(((R)-2-methoxypropyl) (4-(5,6,7,8-tetrahydro-1,8-naphthyridin-2-yl)butyl)amino) butanoic acid]",< 50 nM
2,"O=C(O)[C@H](CCN(CCCCc1ccc2c(n1)NCCC2)CCC(F)F)Nc1ncnc2ccccc12 [Compound 29, (S)-4-((3,3-difluoropropyl) (4-(5,6,7,8-tetrahydro-1,8-naphthyridin-2-yl)butyl)amino)-2-(quinazolin-4-ylamino) butanoic acid]",< 50 nM
3,"COCCN(CCCCc1ccc2c(n1)NCCC2)CC[C@H](Nc1ncnc2cc(F)ccc12)C(=O)O [Compound 7, (S)-2-((7-fluoroquinazolin-4-yl)amino)-4-((2-methoxyethyl) (4-(5,6,7,8-tetrahydro-1,8-naphthyridin-2-yl)butyl)amino) butanoic acid]",< 50 nM
4,"CO[C@H](C)CN(CCCCc1ccc2c(n1)NCCC2)CC[C@H](Nc1ncnc2ccccc12)C(=O)O [Compound 62, (S)-4-(((R)-2-methoxypropyl) (4-(5,6,7,8-tetrahydro-1,8-naphthyridin-2-yl)butyl)amino)-2-(quinazolin-4-ylamino) butanoic acid]",< 50 nM
5,"CO[C@H](C)CN(CCCCc1ccc2c(n1)NCCC2)CC[C@H](Nc1ncc(C2CC2)cn1)C(=O)O [Compound 124, (S)-2-((5-cyclopropylpyrimidin-2-yl)amino)-4-(((R)-2-methoxypropyl) (4-(5,6,7,8-tetrahydro-1,8-naphthyridin-2-yl)butyl)amino) butanoic acid]",< 50 nM
6,"CO[C@H](C)CN(CCCCc1ccc2c(n1)NCCC2)CC[C@H](Nc1ccncn1)C(=O)O [Compound 106, (S)-4-(((R)-2-methoxypropyl) (4-(5,6,7,8-tetrahydro-1,8-naphthyridin-2-yl)butyl)amino)-2-(pyrimidin-4-ylamino) butanoic acid]",< 50 nM
7,"O=C(O)[C@H](CCN(CCCCc1ccc2c(n1)NCCC2)CCC(F)F)Nc1ncc(Br)cn1 [Compound 131, (S)-2-((5-bromopyrimidin-2-yl)amino)-4-((3,3-difluoropropyl) (4-(5,6,7,8-tetrahydro-1,8-naphthyridin-2-yl)butyl)amino) butanoic acid]",50 to 250 nM
8,"COC[C@@H](F)CN(CCCCc1ccc2c(n1)NCCC2)CC[C@H](Nc1ncc(C#N)cn1)C(=O)O [Compound 84, (S)-2-((5-cyanopyrimidin-2-yl)amino)-4-(((S)-2-fluoro-3-methoxypropyl) (4-(5,6,7,8-tetrahydro-1,8-naphthyridin-2-yl)butyl)amino) butanoic acid]",250 to 1000 nM
9,"O=C(O)[C@H](CCN(CCCCc1ccc2c(n1)NCCC2)CCC(F)F)Nc1ncc(C2CC2)cn1 [Compound 135, (S)-2-((5-cyclopropylpyrimidin-2-yl)amino)-4-((3,3-difluoropropyl) (4-(5,6,7,8-tetrahydro-1,8-naphthyridin-2-yl)butyl)amino) butanoic acid]",50 to 250 nM
10,"Cn1ncc2c(N[C@@H](CCN(CCCF)CCCCc3ccc4c(n3)NCCC4)C(=O)O)ncnc21 [Compound 136, (S)-4-((3-fluoropropyl) (4-(5,6,7,8-tetrahydro-1,8-naphthyridin-2-yl)butyl)amino)-2-((1-methyl-1H-pyrazolo[3,4-d]pyrimidin-4-yl)amino) butanoic acid]",< 50 nM
11,"Cn1ncc2c(N[C@@H](CCN(CCCCc3ccc4c(n3)NCCC4)CCOc3ccc(F)cc3)C(=O)O)ncnc21 [Compound 123, (S)-4-((2-(4-fluorophenoxy)ethyl) (4-(5,6,7,8-tetrahydro-1,8-naphthyridin-2-yl)butyl)amino)-2-((1-methyl-1H-pyrazolo[3,4-d]pyrimidin-4-yl)amino) butanoic acid]",< 50 nM
12,"COC[C@@H](F)CN(CCCCc1ccc2c(n1)NCCC2)CC[C@H](Nc1ccncn1)C(=O)O [Compound 127, (S)-4-(((S)-2-fluoro-3-methoxypropyl) (4-(5,6,7,8-tetrahydro-1,8-naphthyridin-2-yl)butyl)amino)-2-(pyrimidin-4-ylamino) butanoic acid]",250 to 1000 nM
13,"Cn1ncc2c(N[C@@H](CCN(CCCCc3ccc4c(n3)NCCC4)CCS(C)(=O)=O)C(=O)O)ncnc21 [Compound 101, (S)-2-((1-methyl-1H-pyrazolo[3,4-d]pyrimidin-4-yl)amino)-4-((2-(methylsulfonyl)ethyl) (4-(5,6,7,8-tetrahydro-1,8-naphthyridin-2-yl)butyl)amino) butanoic acid]",50 to 250 nM
14,"Cn1ncc2c(N[C@@H](CCN(CCCCc3ccc4c(n3)NCCC4)CCOc3ccccc3)C(=O)O)ncnc21 [Compound 82, (S)-2-((1-methyl-1H-pyrazolo[3,4-d]pyrimidin-4-yl)amino)-4-((2-phenoxyethyl) (4-(5,6,7,8-tetrahydro-1,8-naphthyridin-2-yl)butyl)amino) butanoic acid]",< 50 nM
15,"CO[C@H](C)CN(CCCCc1ccc2c(n1)NCCC2)CC[C@H](Nc1cc(-c2ccccc2)ncn1)C(=O)O [Compound 80, (S)-4-(((R)-2-methoxypropyl) (4-(5,6,7,8-tetrahydro-1,8-naphthyridin-2-yl)butyl)amino)-2-((6-phenylpyrimidin-4-yl)amino) butanoic acid]",< 50 nM
16,"COCCN(CCCCc1ccc2c(n1)NCCC2)CC[C@H](Nc1ccnc2ccccc12)C(=O)O [Compound 36, (S)-4-((2-methoxyethyl) (4-(5,6,7,8-tetrahydro-1,8-naphthyridin-2-yl)butyl)amino)-2-(quinolin-4-ylamino) butanoic acid]",> 1000 nM
17,"O=C(O)[C@H](CCN(CCCCc1ccc2c(n1)NCCC2)CCOc1ccc(F)cc1)Nc1ncc(C(F)(F)F)cn1 [Compound 139, (S)-4-((2-(4-fluorophenoxy)ethyl) (4-(5,6,7,8-tetrahydro-1,8-naphthyridin-2-yl)butyl)amino)-2-((5-(trifluoromethyl)pyrimidin-2-yl)amino) butanoic acid]",< 50 nM
18,"O=C(O)[C@H](CCN(CCO)CCCCc1ccc2c(n1)NCCC2)Nc1ncnc2ccccc12 [Compound 75, (S)-4-((2-hydroxyethyl) (4-(5,6,7,8-tetrahydro-1,8-naphthyridin-2-yl)butyl)amino)-2-(quinazolin-4-ylamino) butanoic acid]",< 50 nM
19,"Cn1ncc2c(N[C@@H](CCN(CCCCc3ccc4c(n3)NCCC4)CC(F)F)C(=O)O)ncnc21 [Compound 88, (S)-4-((2,2-difluoroethyl) (4-(5,6,7,8-tetrahydro-1,8-naphthyridin-2-yl)butyl)amino)-2-((1-methyl-1H-pyrazolo[3,4-d]pyrimidin-4-yl)amino) butanoic acid]",> 1000 nM
20,"COCCN(CCCCc1ccc2c(n1)NCCC2)CC[C@H](Nc1ncnc2cccnc12)C(=O)O [Compound 16, (S)-4-((2-methoxyethyl) (4-(5,6,7,8-tetrahydro-1,8-naphthyridin-2-yl)butyl)amino)-2-(pyrido[3,2-d]pyrimidin-4-ylamino) butanoic acid]",< 50 nM
21,"CO[C@H](C)CN(CCCCc1ccc2c(n1)NCCC2)CC[C@H](Nc1ncncc1-c1ccccc1)C(=O)O [Compound 81, (S)-4-(((R)-2-methoxypropyl) (4-(5,6,7,8-tetrahydro-1,8-naphthyridin-2-yl)butyl)amino)-2-((5-phenylpyrimidin-4-yl)amino) butanoic acid]",< 50 nM
